Values of other authors in article PMC2228077, “The bioavailability of oral GI147211 (GG211), a new topoisomerase I inhibitor” (British Journal of Cancer, 1997).
“And” between values parts separate entries of the source, which are not always exact repeats. Identical values can stand only once.

What was measured:
[1] = human, in vivo, po; cited from earlier work
[2] = design: method as in Kuhn et al, 1995; Schellens et al, 1996; settings: oral topotecan; ref Kuhn et al, 1995; Schellens et al, 1996; cited from earlier work
[3] = design: method as in Rowinsky et al, 1992; Verweij et al, 1993; settings: ref Rowinsky et al, 1992; Verweij et al, 1993; cited from earlier work

SMILES	patients who developed CTC grade >= II diarrhoea [1]	bioavailability (variable systemic exposure) [2]	dose-limiting toxicity [3]
CC[C@@]1(O)C(=O)OCc2c1cc1n(c2=O)Cc2cc3c([N+](=O)[O-])cccc3nc2-1 [9-nitro-camptothecin]	33%		
CC[C@@]1(O)C(=O)OCc2c1cc1n(c2=O)Cc2cc3c(CN(C)C)c(O)ccc3nc2-1 [topotecan]		32% and 44%	cumulative myelosuppression
